Data: ChEMBL document CHEMBL5727557, “SHP2 inhibitors and uses thereof” (2020)

Molecular target: T1, Tyrosine-protein phosphatase non-receptor type 11 (Homo sapiens, UniProt Q06124)
T1 sequence (Q06124 whole entry): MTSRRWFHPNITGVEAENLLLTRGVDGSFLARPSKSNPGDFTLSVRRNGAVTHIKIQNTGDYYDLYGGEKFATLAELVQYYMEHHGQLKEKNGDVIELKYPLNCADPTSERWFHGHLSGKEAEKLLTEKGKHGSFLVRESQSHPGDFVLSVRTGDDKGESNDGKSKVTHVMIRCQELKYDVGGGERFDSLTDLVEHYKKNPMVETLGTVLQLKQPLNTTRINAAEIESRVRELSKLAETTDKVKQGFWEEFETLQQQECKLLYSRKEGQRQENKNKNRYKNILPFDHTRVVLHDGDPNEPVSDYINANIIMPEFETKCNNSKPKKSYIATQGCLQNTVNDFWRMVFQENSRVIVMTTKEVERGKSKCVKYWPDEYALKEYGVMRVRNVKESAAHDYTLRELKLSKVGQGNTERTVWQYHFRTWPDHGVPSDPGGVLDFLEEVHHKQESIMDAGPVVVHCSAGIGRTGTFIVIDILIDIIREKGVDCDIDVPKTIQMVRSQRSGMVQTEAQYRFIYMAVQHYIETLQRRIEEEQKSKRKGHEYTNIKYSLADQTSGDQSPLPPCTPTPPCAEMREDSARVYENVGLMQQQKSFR
Assay: SHP2 Phosphatase Assay: IC50 values were determined at room temperature in 384-well black polystyrene plate, using a final reaction volume of 15 μl and the following assay buffer conditions: 60 mM Hepes (pH=7.2), 75 mM NaCl, 75 mM KCl, and 1 mM EDTA, 0.05% P-20, 5 mM dithiothreitol (DTT). Full length SHP2 enzyme (diluted to 0.1 nM in reaction buffer) were co-incubated with 1 uM IRS-1 peptide and 0.01 nM to 10 μM compounds of the disclosure for 60 min. The surrogate substrate DiFMUP (5 μL, […]) was added, and incubated at rt for 60 min. The reaction was then quenched by the addition of 5 μL of a 40 μM solution of bpV(Phen). The fluorescence signal was monitored using a microplate reader (Envision, Perkin-Elmer) using excitation and emission wavelengths of 360 nm and 450 nm, respectively. The inhibitor dose-response curves were analyzed using normalized IC50 regression curve fitting with control-based normalization.

IC50: < 50 nM
Compound: CC1(CN)CCN(c2ncc(Sc3cccc(NC(=O)c4c(O)nc5cnccn5c4=O)c3Cl)[nH]c2=O)CC1
